Data taken from patent US7544707B2, “Bicyclic derivatives as PPAR modulators” (Eli Lilly and Company, priority 2003, dated 2009).

Row | melting point [°C] | SMILES
1 | 156 to 158 | Cc1cc(OC(C)c2ccc3cn(-c4ccc(C(F)(F)F)cc4)nc3c2)ccc1OC(C)(C)C(=O)O (racemic) [Example 57, (+/−)-2-Methyl-2-(2-methyl-4-{1-[2-(4-trifluoromethylphenyl)-2H-indazol-6-yl]ethoxy}phenoxy)propionic Acid]
2 | 99 to 102 | CC(Oc1ccc(OC(C)(C)C(=O)O)cc1)c1cccc2c1cnn2-c1ccc(C(F)(F)F)cc1 (racemic) [Example 85, (+/−)-2-Methyl-2-(4-{1-[1-(4-trifluoromethylphenyl)-1H-indazol-4-yl]ethoxy}phenoxy)propionic Acid]
3 | 178 to 180 | CC(C)(Oc1ccc(OCc2cccc3cn(-c4ccc(C(F)(F)F)cc4)nc23)cc1)C(=O)O [Example 39, 2-Methyl-2-{4-[2-(4-trifluoromethylphenyl)-2H-indazol-7-ylmethoxy]phenoxy}propionic Acid]
4 | 65 to 67 | CCc1cc(SC(C)c2cccc3cn(-c4ccc(C(F)(F)F)cc4)nc23)ccc1OCC(=O)O (racemic) [Example 10, (+/−)-2-Ethyl-4-{1-[2-(4-trifluoromethylphenyl)-2H-indazol-7-yl]ethylsulfanyl}phenoxyacetic Acid]
5 | 132 to 134 | Cc1cc(SCc2cccc3c2cnn3-c2ccc(C(F)(F)F)cc2)ccc1OCC(=O)O [Example 30, 2-Methyl-4-[1-(4-trifluoromethylphenyl)-1H-indazol-4-ylmethylsulfanyl]phenoxyacetic Acid]
6 | 148 to 150 | CC(Sc1ccc(OC(C)(C)C(=O)O)cc1)c1cccc2nn(-c3ccc(C(F)(F)F)cc3)cc12 (racemic) [Example 73, (+/−)-2-Methyl-2-(4-{1-[2-(4-trifluoromethylphenyl)-2H-indazol-4-yl]ethylsulfanyl}phenoxy)propionic Acid]
7 | 85 to 87 | Cc1cc(SC(C)c2cccc3c2cnn3-c2ccc(C(F)(F)F)cc2)ccc1OC(C)(C)C(=O)O (racemic) [Example 83, (+/−)-2-Methyl-2-(2-methyl-4-{1-[1-(4-trifluoromethylphenyl)-1H-indazol-4-yl]ethylsulfanyl}phenoxy)propionic Acid]
8 | 203 to 205 | CC(C)(Oc1ccc(OCc2ccc3nn(-c4ccc(C(F)(F)F)cc4)cc3c2)cc1)C(=O)O [Example 65, 2-Methyl-2-{4-[2-(4-trifluoromethylphenyl)-2H-indazol-5-ylmethoxy]phenoxy}propionic Acid]
9 | 154 to 158 | Cc1cc(SCc2cccc3cnn(-c4ccc(C(F)(F)F)cc4)c23)ccc1OC(C)(C)C(=O)O [Example 98, 2-Methyl-2-{2-methyl-4-[1-(4-trifluoromethylphenyl)-1H-indazol-7-ylmethylsulfanyl]phenoxy}propionic Acid]
10 | 55 to 59 | Cc1cc(SCc2cccc3nn(-c4ccc(C(F)(F)F)cc4)cc23)ccc1CCC(=O)O [Example 28, 3-{2-Methyl-4-[2-(4-trifluoromethylphenyl)-2H-indazol-4-ylmethylsulfanyl]phenyl}propionic Acid]
11 | 114 to 116 | CCc1cc(SC(C)(C)c2cccc3cn(-c4ccc(C(F)(F)F)cc4)nc23)ccc1OCC(=O)O [Example 16, 2-Ethyl-4-{1-methyl-1-[2-(4-trifluoromethylphenyl)-2H-indazol-7-yl]ethylsulfanyl}phenoxyacetic Acid]
12 | 240 to 242 | O=C(O)Cc1csc2cc(OCc3ccc4cn(-c5ccc(C(F)(F)F)cc5)nc4c3)ccc12 [Example 25, {6-[2-(4-Trifluoromethylphenyl)-2H-indazol-6-ylmethoxy]benzo[b]thiophen-3-yl}acetic Acid]
13 | 190 to 192 | CCc1cc(OCc2ccc3cn(-c4ccc(C(F)(F)F)cc4)nc3c2)ccc1CCC(=O)O [Example 22, 3-{2-Ethyl-4-[2-(4-trifluoromethylphenyl)-2H-indazol-6-ylmethoxy]phenyl}propionic Acid]
14 | 100 to 104 | Cc1cc(OCc2cccc3c2cnn3-c2ccc(C(F)(F)F)cc2)ccc1OC(C)(C)C(=O)O [Example 77, 2-Methyl-2-{2-methyl-4-[1-(4-trifluoromethylphenyl)-1H-indazol-4-ylmethoxy]phenoxy}propionic Acid]
15 | 133 to 135 | Cc1cc(OCc2cccc3cn(-c4ccc(C(F)(F)F)cc4)nc23)ccc1CCC(=O)O [Example 6, 3-{2-Methyl-4-[2-(4-trifluoromethylphenyl)-2H-indazol-7-ylmethoxy]phenyl}propionic Acid]
16 | 176 to 178 | CC(C)(Oc1ccc(SCc2ccc3cn(-c4ccc(C(F)(F)F)cc4)nc3c2)cc1)C(=O)O [Example 54, 2-Methyl-2-{4-[2-(4-trifluoromethylphenyl)-2H-indazol-6-ylmethylsulfanyl]phenoxy}propionic Acid]
17 | 82 to 85 | Cc1cc(OC(C)c2cccc3c2cnn3-c2ccc(C(F)(F)F)cc2)ccc1OC(C)(C)C(=O)O (racemic) [Example 82, (+/−)-2-Methyl-2-(2-methyl-4-{1-[1-(4-trifluoromethylphenyl)-1H-indazol-4-yl]ethoxy}phenoxy)propionic Acid]
18 | 130 to 132 | CC(Sc1ccc(OC(C)(C)C(=O)O)cc1)c1ccc2cn(-c3ccc(C(F)(F)F)cc3)nc2c1 (racemic) [Example 59, (+/−)-2-Methyl-2-(4-{1-[2-(4-trifluoromethylphenyl)-2H-indazol-6-yl]ethylsulfanyl}phenoxy)propionic Acid]
19 | 76 to 78 | CC(Sc1ccc2c(CC(=O)O)csc2c1)c1cccc2cn(-c3ccc(C(F)(F)F)cc3)nc12 (racemic) [Example 11, (+/−)-6-{1-[2-(4-Trifluoromethylphenyl)-2H-indazol-7-yl]ethylsulfanyl}benzo[b]thiophen-3-ylacetic Acid]
20 | 141 to 143 | Cc1cc(SCCc2cccc3cn(-c4ccc(C(F)(F)F)cc4)nc23)ccc1OC(C)(C)C(=O)O [Example 49, 2-Methyl-2-(2-methyl-4-{2-[2-(4-trifluoromethylphenyl)-2H-indazol-7-yl]ethylsulfanyl}phenoxy)propionic Acid]
21 | 70 to 72 | Cc1cc(SC(C)c2ccc3nn(-c4ccc(C(F)(F)F)cc4)cc3c2)ccc1OC(C)(C)C(=O)O (racemic) [Example 69, (+/−)-2-Methyl-2-(2-methyl-4-{1-[2-(4-trifluoromethylphenyl)-2H-indazol-5-yl]ethylsulfanyl}phenoxy)propionic Acid]
22 | 61 to 63 | CCc1cc(OC(C)c2cccc3cn(-c4ccc(C(F)(F)F)cc4)nc23)ccc1CCC(=O)O (racemic) [Example 13]
23 | 62 to 66 | Cc1cc(SCc2cccc3c2cnn3-c2ccc(C(F)(F)F)cc2)ccc1OC(C)(C)C(=O)O [Example 78, 2-Methyl-2-{2-methyl-4-[1-(4-trifluoromethylphenyl)-1H-indazol-4-ylmethylsufanyl]phenoxy}propionic Acid]
24 | 192 to 194 | CC(C)(Sc1ccc(OCc2ccc3nn(-c4ccc(C(F)(F)F)cc4)cc3c2)cc1)C(=O)O [Example 62, 2-Methyl-2-{4-[2-(4-trifluoromethylphenyl)-2H-indazol-5-ylmethoxy]phenylsulfanyl}propionic Acid]
25 | 109 to 111 | CC(Sc1ccc(OC(C)(C)C(=O)O)cc1)c1ccc2nn(-c3ccc(C(F)(F)F)cc3)cc2c1 (racemic) [Example 68, (+/−)-2-Methyl-2-(4-{1-[2-(4-trifluoromethylphenyl)-2H-indazol-5-yl]ethylsulfanyl}phenoxy)propionic Acid]
26 | 165 to 167 | Cc1cc(OCc2cccc3cn(-c4ccc(C(F)(F)F)cc4)nc23)ccc1OC(C)(C)C(=O)O [Example 37, 2-Methyl-2-{2-methyl-4-[2-(4-trifluoromethylphenyl)-2H-indazol-7-ylmethoxy]phenoxy}propionic Acid]
27 | 120 to 123 | Cc1cc(SCc2cccc3cnn(-c4ccc(C(F)(F)F)cc4)c23)ccc1CCC(=O)O [Example 33, 3-{2-Methyl-4-[1-(4-trifluoromethylphenyl)-1H-indazol-7-ylmethylsulfanyl]phenyl}propionic Acid]
28 | 88 to 90 | Cc1cc(SCc2cccc3cn(-c4ccc(C(F)(F)F)cc4)nc23)ccc1CCC(=O)O [Example 2, 3-{2-Methyl-4-[2-(4-trifluoromethylphenyl)-2H-indazol-7-ylmethylsulfanyl]phenyl}propionic Acid]
